Earlier results as cited in patent publication US20070173447A1, “METHOD FOR TREATING OSTEOPOROSIS BY INTRANASAL DELIVERY OF TERIPARATIDE WITH AN ANTI-RESORPTIVE AGENT” (Nastech Pharmaceutical Company Inc., priority 2005, published 2007).
Read-outs that look alike come from different tables or passages of the source. Ends that are not written are not given here.

Assays:
[1] = rats, intraduodenal, with 1% (w/v) saline dispersion of polycarbophil
[2] = intranasal, up to 500 μg per day for 7 days and up to 1,000 μg per day for 3 months
[3] = after feeding to rats
[4] = anesthetized rats

In the case of “2-alkyl-4-hydroxyquinolines [pyo compound]”, the “concentration producing ciliostasis / inhibiting ciliary motility” value (ciliary motility) is listed as 50 µg/mL.
For “9-desglycinamide, 8-arginine vasopressin [DGAVP]”, the “bioavailability increase compared to aqueous solution without polymer” value [1] is listed as 3-5 fold.
For `CC[C@H](C)[C@H](NC(=O)[C@H](CCC(=O)O)NC(=O)[C@H](CO)NC(=O)[C@@H](NC(=O)[C@@H](N)CO)C(C)C)C(=O)N[C@@H](CCC(N)=O)C(=O)N[C@@H](CC(C)C)C(=O)N[C@@H](CCSC)C(=O)N[C@@H](Cc1cnc[nH]1)C(=O)N[C@@H](CC(N)=O)C(=O)N[C@@H](CC(C)C)C(=O)NCC(=O)N[C@@H](CCCCN)C(=O)N[C@@H](Cc1cnc[nH]1)C(=O)N[C@@H](CC(C)C)C(=O)N[C@@H](CC(N)=O)C(=O)N[C@@H](CO)C(=O)N[C@@H](CCSC)C(=O)N[C@@H](CCC(=O)O)C(=O)N[C@@H](CCCN=C(N)N)C(=O)N[C@H](C(=O)N[C@@H](CCC(=O)O)C(=O)N[C@@H](Cc1c[nH]c2ccccc12)C(=O)N[C@@H](CC(C)C)C(=O)N[C@@H](CCCN=C(N)N)C(=O)N[C@@H](CCCCN)C(=O)N[C@@H](CCCCN)C(=O)N[C@@H](CC(C)C)C(=O)N[C@@H](CCC(N)=O)C(=O)N[C@@H](CC(=O)O)C(=O)N[C@H](C(=O)N[C@@H](Cc1cnc[nH]1)C(=O)N[C@@H](CC(N)=O)C(=O)N[C@@H](Cc1ccccc1)C(=O)O)C(C)C)C(C)C` [Teriparatide, teriparatide], the safety concerns [2] is given as “No safety concerns were noted”.
In the case of Phaseolus vulgaris hemagglutinin, the oral bioavailability [3] is listed as “more than 10%”.
For “hPTH1-31NH2 (SVSEIQLMHNLGKHLNSMERVEWLRKKLQDV-NH2; listed as Homo sapiens)”, the “restoration of bone loss” value (ovariectomized rat model) is given as “fully active”.
For human growth hormone, the nasal bioavailability ([4]; with N-acetyl-L-cysteine) is given as 12.2% and the nasal bioavailability ([4]; without N-acetyl-L-cysteine) is given as 7.5%.
